From patent US5602176A, “Phenyl carbamate” (priority 1987, dated 1997)
Where two headings read alike, the source gives them in different places.

Columns and labels:
[1] = tested on: rat hippocampal slices (indirect method for acetylcholinesterase (AChE) inhibition); experiment: Electrically evoked 3H-acetylcholine release from rat hippocampal slices; format: cell-based
Text: Electrically evoked ^3 H-acetylcholine release from rat hippocampal slices
Electrically evoked ^3 H-acetylcholine (^3 H-ACh) release from rat hippocampal slices is a functional in vitro model to investigate presynaptic muscarinic autoreceptor agonists and antagonists. This model can also be used as an indirect method to evaluate drugs which inhibit acetylcholinesterase (AChE). Inhibition of AChE activity leads to the accumulation of endogenous ACh which then interacts with presynaptic muscarinic autoreceptors and inhibits further release of ^3 H-ACh.
Rat hippocampal slices (Wistar strain, 180-200 g) are prepared by chopping into cross sections whole hippocampal slices at a distance of 0.3 mm with a McIlwain tissue chopper. Hippocampal slices obtained from 3 rats are incubated for 30 min. at 23° C. in 6 ml Krebs-Ringer containing 0.1 uCi ^3 H-choline and transferred into the superfusion chamber and superfused with Kreb's medium containing 10 μM hemicholinium-3 at a rate of 1.2 ml/min. at 30° C. Collection of 5 min. fractions of the superfusate begins after 60 min. of superfusion. Two periods of electrical stimulation (2 Hz rectangular pulses 2 msec, 10 mA, 2 min.) are applied after 70 min. (S1) and after 125 min. (S2) of superfusion. […] At the end of the experiments the slices are solubilized in conc. formic acid and tritium content is determined in the superfusate and the solubilized slices. Tritium outflow is expressed as the fractional rate of tritium outflow per min. Electrically evoked tritium outflow is calculated by subtraction of the extrapolated basal tritium outflow from the total tritium outflow during the two min. of electrical stimulation and the following 13 min. and is expressed as percent of the tritium content at the beginning of the sample collection. Drug effects on stimulation evoked tritium outflow are expressed as the ratios S2 /S1. All experiments are run in dublicates using a programmable 12 channel superfusion system. For the calculation a computer program is used.

[2] = target: T1, AChE preparations of different rat brain regions (Rattus norvegicus, UniProt P37136); experiment: Acetylcholinesterase inhibition in different rat brain regions (in vitro, Ellman); format: biochemical; conditions: table 1
T1 construct: Rat brain tissue is homogenized in cold phosphate buffer pH 7.3; from tissue; host or cells: rat brain (cortex, hippocampus, striatum), supernatant of Triton X-100 homogenate
T1 sequence (P37136 32-614): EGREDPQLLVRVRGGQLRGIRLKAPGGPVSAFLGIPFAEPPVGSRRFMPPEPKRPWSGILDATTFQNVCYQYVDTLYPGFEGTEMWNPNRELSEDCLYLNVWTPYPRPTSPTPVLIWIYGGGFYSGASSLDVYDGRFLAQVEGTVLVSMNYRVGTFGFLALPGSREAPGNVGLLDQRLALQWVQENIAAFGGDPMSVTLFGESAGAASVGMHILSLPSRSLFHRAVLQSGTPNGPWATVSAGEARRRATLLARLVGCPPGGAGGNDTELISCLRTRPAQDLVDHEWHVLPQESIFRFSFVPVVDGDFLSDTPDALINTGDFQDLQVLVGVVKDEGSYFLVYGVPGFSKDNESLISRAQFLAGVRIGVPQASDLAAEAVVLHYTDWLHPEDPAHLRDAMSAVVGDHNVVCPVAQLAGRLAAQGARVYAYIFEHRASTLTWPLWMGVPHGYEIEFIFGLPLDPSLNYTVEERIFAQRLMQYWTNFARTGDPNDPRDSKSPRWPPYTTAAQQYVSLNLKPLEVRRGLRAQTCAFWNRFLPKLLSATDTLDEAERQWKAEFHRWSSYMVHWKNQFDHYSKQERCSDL
Protocol: Acetylcholinesterase inhibition in different rat brain regions
AChE preparations of different rat brain regions (Cortex, hippocampus and striatum) are used in this test and the IC50 (inhibitory concentrations in μM) are determined. The enzyme preparations are preincubated with the inhibitor 15 minutes before the determination.
The AChE activity is measured according to the method described by Ellman (Arch. Biochem. Biophys. 82, 70, 1959). Rat brain tissue is homogenized in cold phosphate buffer pH 7.3 (0.25 mM) containing 0.1% of Triton X-100. After centrifugation aliquots of the clear supernatant is used as enzyme source. The enzyme is preincubated with different concentrations of the inhibitor. After different times, substrate (acetylthiocholinjodide 0.5 mM) is added and the remaining activity determined.

[3] = In vitro skin diffusion test (penetration through the skin); format: in vitro ADME; conditions: rat skin; listed as compound A
Text: The penetration through the skin of the compounds for administration according to the invention may be observed in standard in vitro or in vivo tests.
One in vitro test is the well known diffusion test which may be effected according to the principles set out in GB 2098865 A and by T. J. Franz in J. Invest. Dermatol. (1975) 64, 194-195. Solutions containing the active agent in unlabelled or radioactively labelled form are applied to one side of isolated pieces of intact human skin or hairless rat skin about 2 cm^2 in area. The other side of the skin is in contact with physiological saline. The amount of active agent in the saline is measured in conventional manner, e.g. by HPLC or spectrophotometric techniques, or by determining the radioactivity.
In this test using rat skin the following penetration rates, for example, have been found: […]

[4] = target: AChE (Rattus norvegicus, UniProt P37136); experiment: in vivo; format: in vivo; design: from tissue; host or cells: male OFA rats: cortex, hippocampus, striatum, pons/medulla, heart, blood; conditions: for remaining activity at 10 µmol/kg: rat, po
AChE, sequence (P37136 32-614): as above

[5] = Subcutaneous 8 μmol/kg, 0.5 hours after treatment
[6] = Subcutaneous 8 μmol/kg, 6 hours after treatment
[7] = Subcutaneous 8 μmol/kg, 24 hours after treatment
[8] = Transdermal 30 μmol/kg, 0.5 hours after treatment
[9] = Transdermal 30 μmol/kg, 6 hours after treatment
[10] = Transdermal 30 μmol/kg, 24 hours after treatment

Compound: CCN(C)C(=O)Oc1cccc([C@H](C)N(C)C)c1 [Compound A, (S)-N-ethyl-3-[(1-dimethylamino)ethyl]-N-methyl-phenyl-carbamate]
- antagonism of the inhibitory effect by atropine [1]: can be antagonized by atropine
- inhibition at 100 µM ([1]; Rattus norvegicus, 3 h, 100 μM, read-out: inhibition of electrically evoked 3H-ACh release from hippocampal slices): ~40%
- AChE inhibition in vitro, comparison in words [2]: slightly superior than that with racemate C
- penetration rate [3]: 23.6±14.9%
- AChE activity in % of controls ± SD, Blood [4, 5]: 17.4 ± 4.1 % of controls
- AChE activity in % of controls ± SD, Cortex [4, 5]: 16.8 ± 2.0 % of controls
- AChE activity in % of controls ± SD, Heart [4, 5]: 33.3 ± 5.6 % of controls
- AChE activity in % of controls ± SD, Hippocampus [4, 5]: 18.3 ± 3.1 % of controls
- AChE activity in % of controls ± SD, Pons/Medulla [4, 5]: 20.9 ± 2.9 % of controls
- AChE activity in % of controls ± SD, Striatum [4, 5]: 28.2 ± 12.2 % of controls
- AChE activity in % of controls ± SD, Blood [4, 6]: 79.5 ± 8.2 % of controls
- AChE activity in % of controls ± SD, Cortex [4, 6]: 85.1 ± 1.6 % of controls
- AChE activity in % of controls ± SD, Heart [4, 6]: 51.0 ± 17.9 % of controls
- AChE activity in % of controls ± SD, Hippocampus [4, 6]: 81.4 ± 7.6 % of controls
- AChE activity in % of controls ± SD, Pons/Medulla [4, 6]: 87.1 ± 4.1 % of controls
- AChE activity in % of controls ± SD, Striatum [4, 6]: 82.9 ± 2.8 % of controls
- AChE activity in % of controls ± SD, Blood [4, 7]: 105.7 ± 16.8 % of controls
- AChE activity in % of controls ± SD, Cortex [4, 7]: 93.8 ± 5.9 % of controls
- AChE activity in % of controls ± SD, Heart [4, 7]: 65.7 ± 21.2 % of controls
- AChE activity in % of controls ± SD, Hippocampus [4, 7]: 99.9 ± 9.9 % of controls
- AChE activity in % of controls ± SD, Pons/Medulla [4, 7]: 98.7 ± 6.0 % of controls
- AChE activity in % of controls ± SD, Striatum [4, 7]: 91.0 ± 2.3 % of controls
- AChE activity in % of controls ± SD, Cortex [4, 8]: 86.1 ± 5.6 % of controls
- AChE activity in % of controls ± SD, Heart [4, 8]: 109.0 ± 9.3 % of controls
- AChE activity in % of controls ± SD, Hippocampus [4, 8]: 86.7 ± 5.9 % of controls
- AChE activity in % of controls ± SD, Pons/Medulla [4, 8]: 91.5 ± 3.8 % of controls
- AChE activity in % of controls ± SD, Striatum [4, 8]: 89.7 ± 8.4 % of controls
- AChE activity in % of controls ± SD, Blood [4, 9]: 41.9 ± 13.1 % of controls
- AChE activity in % of controls ± SD, Heart [4, 9]: 52.0 ± 13.1 % of controls
- AChE activity in % of controls ± SD, Hippocampus [4, 9]: 45.7 ± 15.0 % of controls
- AChE activity in % of controls ± SD, Pons/Medulla [4, 9]: 53.6 ± 13.3 % of controls
- AChE activity in % of controls ± SD, Cortex [4, 10]: 73.8 ± 5.7 % of controls
- AChE activity in % of controls ± SD, Heart [4, 10]: 63.9 ± 12.5 % of controls
- AChE activity in % of controls ± SD, Hippocampus [4, 10]: 80.4 ± 8.8 % of controls
- AChE activity in % of controls ± SD, Pons/Medulla [4, 10]: 85.3 ± 4.2 % of controls
- AChE activity in % of controls ± SD, Striatum [4, 10]: 81.0 ± 8.2 % of controls
- time of maximal AChE inhibition ([4]; oral): 15 min
- remaining activity at 10 µmol/kg ([4]; read-out: AChE activity in % of controls ± SD, Blood, Oral 10 μmol/kg, 0.5 hours after treatment): 34 ± 2%
- remaining activity at 10 µmol/kg ([4]; read-out: AChE activity in % of controls ± SD, Blood, Oral 10 μmol/kg, 6 hours after treatment): 77.2 ± 14.7%
- remaining activity at 10 µmol/kg ([4]; read-out: AChE activity in % of controls ± SD, Blood, Oral 10 μmol/kg, 24 hours after treatment): 97.2 ± 13.8%
- remaining activity at 10 µmol/kg ([4]; read-out: AChE activity in % of controls ± SD, Cortex, Oral 10 μmol/kg, 0.5 hours after treatment): 21 ± 3.5%
- remaining activity at 10 µmol/kg ([4]; read-out: AChE activity in % of controls ± SD, Cortex, Oral 10 μmol/kg, 6 hours after treatment): 65.3 ± 21.3%
- remaining activity at 10 µmol/kg ([4]; read-out: AChE activity in % of controls ± SD, Cortex, Oral 10 μmol/kg, 24 hours after treatment): 99.2 ± 8.9%
- remaining activity at 10 µmol/kg ([4]; read-out: AChE activity in % of controls ± SD, Heart, Oral 10 μmol/kg, 0.5 hours after treatment): 71.2 ± 11.2%
- remaining activity at 10 µmol/kg ([4]; read-out: AChE activity in % of controls ± SD, Heart, Oral 10 μmol/kg, 6 hours after treatment): 101 ± 7%
- remaining activity at 10 µmol/kg ([4]; read-out: AChE activity in % of controls ± SD, Heart, Oral 10 μmol/kg, 24 hours after treatment): 94.2 ± 9.2%
- remaining activity at 10 µmol/kg ([4]; read-out: AChE activity in % of controls ± SD, Hippocampus, Oral 10 μmol/kg, 0.5 hours after treatment): 19.7 ± 3.8%
- remaining activity at 10 µmol/kg ([4]; read-out: AChE activity in % of controls ± SD, Hippocampus, Oral 10 μmol/kg, 6 hours after treatment): 62 ± 15.4%
- remaining activity at 10 µmol/kg ([4]; read-out: AChE activity in % of controls ± SD, Hippocampus, Oral 10 μmol/kg, 24 hours after treatment): 97.2 ± 7.1%
- remaining activity at 10 µmol/kg ([4]; read-out: AChE activity in % of controls ± SD, Pons/Medulla, Oral 10 μmol/kg, 0.5 hours after treatment): 26.6 ± 4%
- remaining activity at 10 µmol/kg ([4]; read-out: AChE activity in % of controls ± SD, Pons/Medulla, Oral 10 μmol/kg, 6 hours after treatment): 80.3 ± 9.2%
- remaining activity at 10 µmol/kg ([4]; read-out: AChE activity in % of controls ± SD, Pons/Medulla, Oral 10 μmol/kg, 24 hours after treatment): 104 ± 6.8%
- remaining activity at 10 µmol/kg ([4]; read-out: AChE activity in % of controls ± SD, Striatum, Oral 10 μmol/kg, 0.5 hours after treatment): 32.9 ± 10.7%
- remaining activity at 10 µmol/kg ([4]; read-out: AChE activity in % of controls ± SD, Striatum, Oral 10 μmol/kg, 6 hours after treatment): 87.5 ± 8.8%
- remaining activity at 10 µmol/kg ([4]; read-out: AChE activity in % of controls ± SD, Striatum, Oral 10 μmol/kg, 24 hours after treatment): 96.7 ± 3.3%
- time of maximal AChE inhibition ([4]; subcutaneous): 30 min
- AChE inhibition after transdermal administration ([4]; transdermal): long-lasting, dose-dependent inhibition of AChE activity
- time of maximal AChE inhibition ([4]; transdermal): > 120 min
- AChE activity ([4]; twenty four hours after oral application): has no effect on the enzyme
- AChE activity ([4]; twenty four hours after s.c. application): only the enzyme in the heart is significantly inhibited
- AChE activity ([4]; twenty four hours after transdermal application): still inhibited in central and peripheral regions
